Data taken from article PMC2362906, “Effects of new 17α-hydroxylase/C17,20-lyase inhibitors on LNCaP prostate cancer cell growth in vitro and in vivo” (British Journal of Cancer, 1999).
“Also recorded” adds a separate entry of the source.

What was measured:
[1] = tested on: LNCaP cells; assay: Testosterone-stimulated wild-type LNCaP cell growth; type: cell-based, human; conditions: 0.1 nM testosterone
Description: (§1) Prostate cancer is the most common malignancy and the second leading cause of cancer-related deaths among men in the US and the UK (Shibata et al, 1998). […] Steroidal 17-hydroxylase/C17,20 -lyase (P450c17) (EC 1.14.99.0) was selected as the target enzyme for inhibition, as this is a key regulatory enzyme of androgen synthesis. P450c17 catal- yses two sequential reactions in the steroid biosynthetic pathway and converts pregnenolone and progesterone to the C-19 andro- gens, dehydroepiandrosterone and androstenedione respectively. This enzyme has an identical amino acid sequence in testicular and adrenal tissues (Chung et al, 1987). […] In order to evaluate the effectiveness of these inhibitors we developed a multi-step system, which utilized the LNCaP human prostate cancer cell line. LNCaP cells remain the only androgen receptor (AR)-positive prostate cancer cell line, that can be readily grown in tissue culture (Horoszewicz et al, 1983). These cells respond to androgens with increased cell proliferation and elevated expression of prostate specific antigen (PSA) (Berns et al, 1993). LNCaP cells at early passages are not only androgen-responsive, but also androgen- dependent (Pousette et al, 1997). This is similar to the situation in most tumours of prostatic cancer patients, which are initially highly responsive and dependent on androgens. […] Therefore, we employed LNCaP cells as a model for evaluating the effectiveness of our new inhibitors of androgen synthesis. In this study the compounds selected for evaluation were two groups of azolyl steroids. […] Here we report on the application of LNCaP-CYP17-transfected cells for determining the inhibitory potencies of the new compounds against the P450c17 enzyme. […] We designed and evaluated two groups of azolyl steroids: 5-non-competitive inhibitors (5NCIs), VN/63-1, VN/85-1, VN/87-1 and their corresponding 4 derivatives (4NCIs), VN/107-1, VN/108-1 and VN/109-1. The human P450c17 gene was transfected into LNCaP human prostate cancer cells, and the resultant LNCaP- CYP17 cells were utilized to evaluate the inhibitory potency of the new azolyl steroids. […] We further evaluated our inhibitors in male severe combined immuno- deficient mice bearing LNCaP tumour xenografts. […] We also utilized wild-type LNCaP prostatic carcinoma cells for evaluating the direct effects of new azolyl steroids on proliferation of these cells in vitro and in vivo. MATERIALS AND METHODS Materials The human prostate cancer cell line LNCaP was obtained from the American Type Culture Collection (Rockville, MD, USA). RPMI- 1640 medium, trypsin-EDTA (0.25%/0.02%), penicillin/strepto- mycin (P/S), geniticin (G418), and LipofectAMINE were from Gibco-BRL (Grand Island, NY, USA). Fetal bovine serum (FBS) was obtained from Summit Biotechnology Inc. (Fort Collins, CO, USA) and steroid-free FBS was prepared as described previously (Klus et al, 1996). Phenol red free IMEM and trypsin-versine were purchased from Biofluids Inc. (Rockville, MD, USA). Chloroform and acetonitrile were purchased from JT Baker, Inc (Phillipsburg, NJ, USA). Hydroxypropyl cellulose (HPC) was purchased from Sigma Chemical Co. (St Louis, MO, USA). The PSA enzyme- linked immunusorbent assay (ELISA) kit was from DSL Inc. (Webster, TX, USA). Matrigel was generously supplied by Dr Hynda Kleinman (NIH, Bethesda, MD, USA). Inhibitors of androgen synthesis: VN/63-1, VN/85-1, VN/87-1, VN/107-1, VN/108-1 and VN/109-1 were synthesized in our labo- ratory as previously described (Njar et al, 1998). […] Metribolone [17-methyl-3 H]-R1881 ([3 H]-R1881: specific activity 86 Ci mmol-1 ) was purchased from Dupont NEN (Boston, MA, USA).

[2] = tested on: serum DHT; assay: Serum DHT (RIA) in SCID mice; type: in vivo, male SCID mice; conditions: 28 days of treatment, 50 mg kg-1 day-1
Description: as §1

[3] = biological target: human prostatic 5-reductase; design: method as in Njar et al, 1998; conditions: human prostatic microsomes; reported previously; ref Njar et al, 1998; cited from earlier work
[4] = tested on: LNCaP cells; assay: DHT-stimulated wild-type LNCaP cell growth; type: cell-based, human; conditions: 0.03 nM DHT, 9 days
Description: as §1

[5] = biological target: T1, human 17α-hydroxylase/C17,20-lyase (P450c17) expressed in LNCaP-CYP17 cells (Homo sapiens, UniProt P05093); assay: [3H]-acetic acid releasing assay (AARA) with LNCaP-CYP17 cells; type: cell-based; conditions: LNCaP-CYP17 cells, 7 μM [21-3H]17-OHP5, 16 h; mean ± s.e.m., three experiments
T1 sequence (P05093 9-508 limits assumed): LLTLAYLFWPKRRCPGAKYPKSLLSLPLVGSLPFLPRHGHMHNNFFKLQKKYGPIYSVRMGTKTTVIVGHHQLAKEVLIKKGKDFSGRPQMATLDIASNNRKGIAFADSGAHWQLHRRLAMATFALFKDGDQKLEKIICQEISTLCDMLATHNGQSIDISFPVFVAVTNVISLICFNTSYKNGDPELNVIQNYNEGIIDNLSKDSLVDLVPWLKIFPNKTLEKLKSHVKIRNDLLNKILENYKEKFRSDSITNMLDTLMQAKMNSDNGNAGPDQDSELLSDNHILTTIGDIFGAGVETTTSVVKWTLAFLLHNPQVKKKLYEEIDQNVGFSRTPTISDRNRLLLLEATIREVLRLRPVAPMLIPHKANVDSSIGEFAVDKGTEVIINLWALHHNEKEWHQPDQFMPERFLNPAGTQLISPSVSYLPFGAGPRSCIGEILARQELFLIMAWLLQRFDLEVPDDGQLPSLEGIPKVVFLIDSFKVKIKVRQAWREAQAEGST

[6] = tested on: LNCaP tumour xenografts; assay: LNCaP tumour xenograft growth in male SCID mice; type: in vivo
Description: as §1

[7] = tested on: serum testosterone; assay: Serum testosterone (RIA) in SCID mice; type: in vivo, male SCID mice; conditions: 28 days of treatment, 50 mg kg-1 day-1
Description: as §1

[8] = tested on: serum PSA; assay: Serum PSA (ELISA) in LNCaP tumour-bearing SCID mice; type: in vivo, male SCID mice; conditions: first experiment, 50 mg kg-1 day-1, 28 days
Description: Prostate cancer is the most common malignancy and the second leading cause of cancer-related deaths among men in the US and the UK (Shibata et al, 1998). […] Steroidal 17-hydroxylase/C17,20 -lyase (P450c17) (EC 1.14.99.0) was selected as the target enzyme for inhibition, as this is a key regulatory enzyme of androgen synthesis. P450c17 catal- yses two sequential reactions in the steroid biosynthetic pathway and converts pregnenolone and progesterone to the C-19 andro- gens, dehydroepiandrosterone and androstenedione respectively. This enzyme has an identical amino acid sequence in testicular and adrenal tissues (Chung et al, 1987). […] In order to evaluate the effectiveness of these inhibitors we developed a multi-step system, which utilized the LNCaP human prostate cancer cell line. LNCaP cells remain the only androgen receptor (AR)-positive prostate cancer cell line, that can be readily grown in tissue culture (Horoszewicz et al, 1983). These cells respond to androgens with increased cell proliferation and elevated expression of prostate specific antigen (PSA) (Berns et al, 1993). LNCaP cells at early passages are not only androgen-responsive, but also androgen- dependent (Pousette et al, 1997). This is similar to the situation in most tumours of prostatic cancer patients, which are initially highly responsive and dependent on androgens. […] Therefore, we employed LNCaP cells as a model for evaluating the effectiveness of our new inhibitors of androgen synthesis. In this study the compounds selected for evaluation were two groups of azolyl steroids. […] Here we report on the application of LNCaP-CYP17-transfected cells for determining the inhibitory potencies of the new compounds against the P450c17 enzyme. […] We designed and evaluated two groups of azolyl steroids: 5-non-competitive inhibitors (5NCIs), VN/63-1, VN/85-1, VN/87-1 and their corresponding 4 derivatives (4NCIs), VN/107-1, VN/108-1 and VN/109-1. The human P450c17 gene was transfected into LNCaP human prostate cancer cells, and the resultant LNCaP- CYP17 cells were utilized to evaluate the inhibitory potency of the new azolyl steroids. […] We further evaluated our inhibitors in male severe combined immuno- deficient mice bearing LNCaP tumour xenografts. […] We also utilized wild-type LNCaP prostatic carcinoma cells for evaluating the direct effects of new azolyl steroids on proliferation of these cells in vitro and in vivo. MATERIALS AND METHODS Materials The human prostate cancer cell line LNCaP was obtained from the American Type Culture Collection (Rockville, MD, USA). RPMI- 1640 medium, trypsin-EDTA (0.25%/0.02%), penicillin/strepto- mycin (P/S), geniticin (G418), and LipofectAMINE were from Gibco-BRL (Grand Island, NY, USA). Fetal bovine serum (FBS) was obtained from Summit Biotechnology Inc. (Fort Collins, CO, USA) and steroid-free FBS was prepared as described previously (Klus et al, 1996). Phenol red free IMEM and trypsin-versine were purchased from Biofluids Inc. (Rockville, MD, USA). Chloroform and acetonitrile were purchased from JT Baker, Inc (Phillipsburg, NJ, USA). Hydroxypropyl cellulose (HPC) was purchased from Sigma Chemical Co. (St Louis, MO, USA). The PSA enzyme- linked immunusorbent assay (ELISA) kit was from DSL Inc. (Webster, TX, USA). Matrigel was generously supplied by Dr Hynda Kleinman (NIH, Bethesda, MD, USA). […]

[9] = Table 3, second experiment, control 239.2
[10] = second experiment, 50 mg kg-1 day-1, 28 days

## C[C@]12CC[C@H]3[C@@H](CCC4=CC(=O)CC[C@@]43C)[C@@H]1CC[C@@H]2O [Testosterone, reference compound]
[1]; 9 days
  Stimulation of LNCaP cell proliferation compared to vehicle-treated control cells: 5.8 fold

## C[C@]12CCC(=O)C=C1CC[C@@H]1[C@@H]2CC[C@]2(C)C(n3ccnn3)=CC[C@@H]12 [VN/109-1]
[2]; [9]
  Serum DHT: 228.4 pg/mL
[3]
  IC50: 198 nM
[4]; 0.5-5.0 μM compound
  Effect on DHT-induced cell proliferation: least effective inhibitors of androgen-induced cell pro- liferation
[5]
  IC50: 5.39 nM
[1]; 0.5-5.0 μM compound, 9 days
  Effect on testosterone-stimulated cell growth (words): moderate inhibitory effect; also recorded: biphasic growth responses
[6]; [10]
  Stimulation of LNCaP tumour growth compared to control mice: 110%

## C[C@]12CC[C@H](O)CC1=CC[C@@H]1[C@@H]2CC[C@]2(C)C(n3cncn3)=CC[C@@H]12 [VN/63-1]
[2]; [9]
  Serum DHT: 189.7 pg/mL
[3]
  IC50: > 5000 nM
[4]
  Concentration that completely blocked DHT stimulation: 1.0 µM
[5]
  IC50: 47.1 nM
[1]; 9 days
  Concentration that completely inhibited the growth stimulatory effect of testosterone: 1.0 µM
[7]; Table 3, second experiment, control 0.205
  Serum Testosterone: 0.146 ng/mL
[6]; [10]
  Effect on tumour growth (words): Neither VN/63-1, VN/107 nor ketoconazole had any appreciable effects

## C[C@]12CC[C@H](O)CC1=CC[C@@H]1[C@@H]2CC[C@]2(C)C(n3ccnn3)=CC[C@@H]12 [VN/87-1]
[8]
  Serum PSA levels versus control: significantly lower
[2]; Table 2, first experiment, control 243.8
  Serum DHT: 128.6 pg/mL
[3]
  IC50: > 5000 nM
[5]
  IC50: 7.97 nM
[7]; Table 2, first experiment, control 1.043
  Serum Testosterone: 0.343 ng/mL
[6]; first experiment, 50 mg kg-1 day-1, 4 weeks
  Inhibition of LNCaP tumour growth (tumour volume): 33%
[6]; first experiment, 50 mg kg-1 day-1, 28 days
  Reduction of tumour weights compared to vehicle-treated mice: 31%

## CC(C)C(=O)Nc1ccc([N+](=O)[O-])c(C(F)(F)F)c1 [Flutamide, reference compound]
[4]
  Stimulation of cell growth compared to DHT-treated cells: 10-20%
[5]
  IC50: > 5000 nM
[1]; compound at 2.5 and 5.0 μM
  Inhibition of testosterone stimulated cell growth: ~ 50%

## C[C@]12CCC(=O)C[C@@H]1CC[C@@H]1[C@@H]2CC[C@]2(C)[C@@H](O)CC[C@@H]12 [DHT, Dihydrotestosterone, reference compound]
[4]
  Stimulation of LNCaP cell proliferation compared to vehicle-treated cells: 3.2 fold
